Reference: the NIST ThermoML archive (doi:10.1021/acs.jced.6b00362)

Experiment: refractive index (other wavelength) (dimensionless); xn = mol fraction of the nth substance listed
Settings: Liquid, ellipsometry

[Cl][Ce]([Cl])[Cl] [cerium trichloride] + [Cl-].[Cs+]
refractive index, 100 kPa, Wavelength=632.8 nm
Settings | x1 = 0.25 | x1 = 0.5 | x1 = 0.75 | x1 = 1
1073 K | 1.495 | 1.553 | 1.627 | –
1103 K | 1.49 | 1.549 | 1.623 | 1.697
1123 K | 1.487 | 1.545 | 1.619 | –
1133 K | – | – | – | 1.691
1153 K | 1.482 | 1.54 | 1.614 | 1.688
1173 K | 1.479 | 1.537 | 1.61 | 1.685
1193 K | – | – | – | 1.681
1203 K | – | 1.532 | – | –
1213 K | – | 1.53 | – | 1.678
1223 K | – | – | 1.601 | –
1233 K | – | – | – | 1.674

[Cl][Ce]([Cl])[Cl] [cerium trichloride] + [Cl-].[K+]
refractive index, 100 kPa, Wavelength=632.8 nm
Settings | 1073 K | 1103 K | 1123 K | 1133 K | 1153 K | 1173 K | 1193 K | 1203 K | 1213 K | 1233 K
x1 = 0.25 | 1.478 | 1.475 | 1.471 | – | 1.466 | 1.463 | 1.46 | – | – | –
x1 = 0.5 | 1.56 | 1.554 | 1.552 | – | 1.548 | 1.544 | – | 1.54 | – | –
x1 = 0.75 | 1.591 | 1.586 | 1.583 | – | 1.582 | 1.575 | – | – | – | –
x1 = 1 | – | 1.697 | – | 1.691 | 1.688 | 1.685 | 1.681 | – | 1.678 | 1.674

[Cl][Ce]([Cl])[Cl] [cerium trichloride] + [Cl-].[Na+]
refractive index, 101 kPa, Wavelength=632.8 nm
Settings | 1073 K | 1103 K | 1123 K | 1133 K | 1153 K | 1173 K | 1193 K | 1213 K | 1223 K | 1233 K
x1 = 0.25 | 1.515 | 1.51 | 1.507 | – | 1.502 | 1.5 | – | – | – | –
x1 = 0.5 | 1.595 | 1.59 | 1.587 | – | 1.582 | 1.58 | 1.578 | – | – | –
x1 = 0.75 | 1.656 | 1.651 | 1.647 | – | 1.642 | 1.639 | 1.636 | – | 1.631 | –
x1 = 1 | – | 1.697 | – | 1.691 | 1.688 | 1.685 | 1.681 | 1.678 | – | 1.674

[Cl-].[Cs+] [cesium chloride] + [Cl-].[Cl-].[Cl-].[Gd+3]
100 kPa, Wavelength=632.8 nm, x2 = 0
Settings | refractive index
1023 K | 1.439
1033 K | 1.438
1053 K | 1.434
1073 K | 1.43
1093 K | 1.426
1113 K | 1.423
1133 K | 1.419
1153 K | 1.415
1173 K | 1.411

[Cl-].[Cs+] [cesium chloride] + [Cl][Ce]([Cl])[Cl]
100 kPa, Wavelength=632.8 nm, x2 = 0
Settings | refractive index
1023 K | 1.439
1033 K | 1.438
1053 K | 1.434
1073 K | 1.43
1093 K | 1.426
1113 K | 1.423
1133 K | 1.419
1153 K | 1.415
1173 K | 1.411

[Cl-].[Cs+] [cesium chloride] + [Cl][Sm]([Cl])[Cl]
100 kPa, Wavelength=6328 nm, x2 = 0
Settings | refractive index
1023 K | 1.439
1033 K | 1.438
1053 K | 1.434
1073 K | 1.43
1093 K | 1.426
1113 K | 1.423
1133 K | 1.419
1153 K | 1.415
1173 K | 1.411

[Cl-].[Cl-].[Cl-].[Gd+3] [gadolinium(III) chloride] + [Cl-].[Cs+]
refractive index, 100 kPa, Wavelength=632.8 nm
Settings | 923 K | 973 K | 1023 K | 1073 K | 1103 K | 1123 K | 1173 K
x1 = 0.15 | – | – | – | 1.46 | 1.453 | 1.448 | 1.437
x1 = 0.5 | 1.568 | 1.56 | 1.552 | 1.543 | 1.538 | 1.535 | 1.526
x1 = 0.75 | 1.629 | 1.621 | 1.613 | 1.606 | 1.603 | 1.601 | 1.594
x1 = 1 | 1.7 | 1.685 | 1.68 | 1.675 | – | 1.664 | 1.662

[Cl-].[Cl-].[Cl-].[Gd+3] [gadolinium(III) chloride] + [Cl-].[K+]
refractive index, 100 kPa, Wavelength=632.8 nm
Settings | 923 K | 973 K | 1023 K | 1073 K | 1123 K | 1173 K
x1 = 0.25 | – | – | 1.48 | 1.473 | 1.465 | 1.457
x1 = 0.5 | 1.557 | 1.551 | 1.546 | 1.54 | 1.534 | 1.529
x1 = 0.75 | 1.665 | 1.65 | 1.635 | 1.62 | 1.606 | 1.591
x1 = 1 | 1.7 | 1.685 | 1.68 | 1.675 | 1.664 | 1.662

[Cl-].[Cl-].[Cl-].[Gd+3] [gadolinium(III) chloride] + [Cl-].[Na+]
refractive index, 100 kPa, Wavelength=632.8 nm
Settings | 923 K | 973 K | 1023 K | 1073 K | 1123 K | 1173 K
x1 = 0.25 | 1.525 | 1.518 | 1.512 | 1.505 | 1.496 | 1.488
x1 = 0.5 | 1.586 | 1.58 | 1.57 | 1.562 | 1.55 | 1.544
x1 = 0.75 | 1.643 | 1.64 | 1.638 | 1.627 | 1.62 | 1.616
x1 = 1 | 1.7 | 1.685 | 1.68 | 1.675 | 1.664 | 1.662

[Cl-].[K+] [potassium chloride] + [Cl-].[Cl-].[Cl-].[Gd+3]
100 kPa, Wavelength=632.8 nm, x2 = 0
Settings | refractive index
1073 K | 1.393
1093 K | 1.39
1103 K | 1.388
1113 K | 1.386
1123 K | 1.385
1133 K | 1.383
1153 K | 1.38
1173 K | 1.377
1193 K | 1.374

[Cl-].[K+] [potassium chloride] + [Cl-].[Na+]
101 kPa, Wavelength=632.8 nm, x2 = 0.5
Settings | refractive index
953 K | 1.42
973 K | 1.417
993 K | 1.414
1013 K | 1.411
1033 K | 1.408
1053 K | 1.405
1073 K | 1.402
1093 K | 1.399
1103 K | 1.397
1113 K | 1.396
1123 K | 1.394
1133 K | 1.393
1153 K | 1.39
1173 K | 1.387

[Cl-].[K+] [potassium chloride] + [Cl][Ce]([Cl])[Cl]
100 kPa, Wavelength=632.8 nm, x2 = 0
Settings | refractive index
1073 K | 1.393
1093 K | 1.39
1103 K | 1.388
1113 K | 1.386
1123 K | 1.385
1133 K | 1.383
1153 K | 1.38
1173 K | 1.377
1193 K | 1.374

[Cl-].[K+] [potassium chloride] + [Cl][Sm]([Cl])[Cl]
100 kPa, Wavelength=632.8 nm, x2 = 0
Settings | refractive index
1073 K | 1.393
1093 K | 1.39
1103 K | 1.388
1113 K | 1.386
1123 K | 1.385
1133 K | 1.383
1153 K | 1.38
1173 K | 1.377
1193 K | 1.374

[Cl][Sm]([Cl])[Cl] [samarium chloride] + [Cl-].[Cs+]
refractive index, 100 kPa, Wavelength=6328 nm
Settings | 973 K | 1003 K | 1023 K | 1073 K | 1103 K | 1123 K | 1153 K | 1173 K | 1203 K
x1 = 0.15 | – | – | 1.468 | 1.464 | 1.458 | 1.448 | – | 1.44 | –
x1 = 0.5 | 1.564 | 1.558 | 1.557 | 1.55 | 1.543 | 1.54 | – | 1.527 | 1.523
x1 = 0.75 | 1.675 | 1.668 | 1.662 | 1.654 | 1.651 | 1.642 | – | 1.64 | 1.635
x1 = 1 | 1.712 | 1.705 | 1.701 | 1.691 | 1.684 | 1.68 | 1.674 | 1.672 | –

[Cl][Sm]([Cl])[Cl] [samarium chloride] + [Cl-].[K+]
refractive index, 100 kPa, Wavelength=632.8 nm
Settings | 973 K | 1003 K | 1023 K | 1073 K | 1103 K | 1123 K | 1153 K | 1173 K | 1203 K
x1 = 0.25 | – | – | – | 1.478 | 1.47 | 1.466 | – | 1.458 | 1.45
x1 = 0.5 | 1.588 | 1.582 | 1.577 | 1.56 | 1.551 | 1.54 | – | 1.525 | 1.52
x1 = 0.75 | 1.66 | 1.652 | 1.651 | 1.63 | 1.623 | 1.618 | – | 1.605 | 1.601
x1 = 1 | 1.712 | 1.705 | 1.701 | 1.691 | 1.684 | 1.68 | 1.674 | 1.672 | –

[Cl][Sm]([Cl])[Cl] [samarium chloride] + [Cl-].[Na+]
refractive index, 100 kPa, Wavelength=632.8 nm
Settings | 973 K | 1003 K | 1023 K | 1073 K | 1103 K | 1123 K | 1153 K | 1173 K | 1193 K
x1 = 0.25 | 1.536 | 1.53 | 1.526 | 1.518 | 1.513 | 1.51 | – | 1.503 | 1.499
x1 = 0.5 | 1.613 | 1.609 | 1.602 | 1.583 | 1.582 | 1.58 | – | 1.569 | –
x1 = 0.75 | 1.672 | 1.665 | 1.662 | 1.653 | 1.648 | 1.64 | – | 1.629 | –
x1 = 1 | 1.712 | 1.705 | 1.701 | 1.691 | 1.684 | 1.68 | 1.674 | 1.672 | –

[Cl-].[Na+] [sodium chloride] + [Cl-].[Cl-].[Cl-].[Gd+3]
100 kPa, Wavelength=632.8 nm, x2 = 0
Settings | refractive index
1083 K | 1.41
1093 K | 1.408
1103 K | 1.407
1113 K | 1.406
1123 K | 1.405
1133 K | 1.404
1153 K | 1.402
1173 K | 1.399

[Cl-].[Na+] [sodium chloride] + [Cl][Ce]([Cl])[Cl]
101 kPa, Wavelength=632.8 nm, x2 = 0
Settings | refractive index
1083 K | 1.41
1093 K | 1.408
1103 K | 1.407
1113 K | 1.406
1123 K | 1.405
1133 K | 1.404
1153 K | 1.402
1173 K | 1.399

[Cl-].[Na+] [sodium chloride] + [Cl][Sm]([Cl])[Cl]
100 kPa, Wavelength=632.8 nm, x2 = 0
Settings | refractive index
1083 K | 1.41
1093 K | 1.408
1103 K | 1.407
1113 K | 1.406
1123 K | 1.405
1133 K | 1.404
1153 K | 1.402
1173 K | 1.399
